For twelve compounds, IC50 and Ki results are on record in ChEMBL document CHEMBL1909046, “DrugMatrix in vitro pharmacology data”.

Data set [1] has as its target T1, Receptor-type tyrosine-protein phosphatase C (Homo sapiens, UniProt P08575).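 Note: inhibition of CD45 enzyme activity measured using DiFMUP as substrate; in other assays of this panel Not Active means under 50% inhibition at 10 µM.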
T1 sequence (P08575 whole entry): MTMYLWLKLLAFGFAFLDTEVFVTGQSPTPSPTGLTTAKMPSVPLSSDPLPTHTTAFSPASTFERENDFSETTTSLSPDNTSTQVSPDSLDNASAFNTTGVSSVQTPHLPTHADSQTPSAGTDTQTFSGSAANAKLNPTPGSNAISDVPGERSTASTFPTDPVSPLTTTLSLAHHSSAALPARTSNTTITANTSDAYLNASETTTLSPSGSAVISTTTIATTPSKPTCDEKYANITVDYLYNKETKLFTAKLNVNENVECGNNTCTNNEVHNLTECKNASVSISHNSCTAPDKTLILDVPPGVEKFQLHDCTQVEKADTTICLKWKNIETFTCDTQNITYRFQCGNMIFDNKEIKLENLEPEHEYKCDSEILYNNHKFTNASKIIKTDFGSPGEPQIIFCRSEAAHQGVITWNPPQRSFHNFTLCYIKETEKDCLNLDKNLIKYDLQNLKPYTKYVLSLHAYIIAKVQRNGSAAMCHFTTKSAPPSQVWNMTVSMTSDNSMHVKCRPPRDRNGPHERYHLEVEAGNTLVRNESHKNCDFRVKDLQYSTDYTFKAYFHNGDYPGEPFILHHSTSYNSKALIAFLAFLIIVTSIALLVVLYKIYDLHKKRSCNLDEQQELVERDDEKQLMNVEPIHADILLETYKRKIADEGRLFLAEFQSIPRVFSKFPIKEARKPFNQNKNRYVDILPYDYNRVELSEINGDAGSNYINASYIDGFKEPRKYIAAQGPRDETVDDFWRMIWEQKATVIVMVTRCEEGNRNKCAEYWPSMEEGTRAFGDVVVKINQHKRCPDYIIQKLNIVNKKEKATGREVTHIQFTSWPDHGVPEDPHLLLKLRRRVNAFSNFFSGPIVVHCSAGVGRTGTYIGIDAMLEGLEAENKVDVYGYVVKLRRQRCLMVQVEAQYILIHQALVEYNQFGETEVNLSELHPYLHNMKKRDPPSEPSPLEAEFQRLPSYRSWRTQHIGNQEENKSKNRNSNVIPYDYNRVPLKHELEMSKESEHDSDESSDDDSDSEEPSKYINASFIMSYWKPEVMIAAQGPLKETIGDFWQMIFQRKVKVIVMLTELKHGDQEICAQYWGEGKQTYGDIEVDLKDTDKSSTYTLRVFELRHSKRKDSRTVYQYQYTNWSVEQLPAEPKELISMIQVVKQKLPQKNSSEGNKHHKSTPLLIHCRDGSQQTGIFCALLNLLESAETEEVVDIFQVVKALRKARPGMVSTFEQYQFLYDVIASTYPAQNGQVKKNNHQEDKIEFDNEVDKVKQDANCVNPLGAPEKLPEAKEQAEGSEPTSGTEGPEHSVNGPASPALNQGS
The arrangement: species or system Escherichia coli.

Data set [2] deals with T2, C-C chemokine receptor type 4 (Homo sapiens, UniProt P51679).
T2 sequence (P51679 whole entry): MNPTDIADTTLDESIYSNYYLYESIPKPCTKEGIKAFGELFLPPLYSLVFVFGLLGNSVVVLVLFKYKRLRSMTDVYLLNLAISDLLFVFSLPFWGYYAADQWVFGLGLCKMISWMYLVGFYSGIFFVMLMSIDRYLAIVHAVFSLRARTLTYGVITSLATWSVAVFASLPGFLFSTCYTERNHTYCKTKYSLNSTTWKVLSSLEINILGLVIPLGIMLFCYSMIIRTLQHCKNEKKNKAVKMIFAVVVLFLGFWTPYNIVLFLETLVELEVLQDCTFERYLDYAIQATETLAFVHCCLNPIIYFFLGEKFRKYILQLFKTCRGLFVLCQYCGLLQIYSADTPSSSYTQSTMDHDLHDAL
In kind it is cell membranes, Membrane. The following applies: chem-1.

A short description of data set [3]: DRUGMATRIX: GABAA, Flunitrazepam, Central radioligand binding (ligand: [3H] Flunitrazepam). It is filed as cell membranes, Rattus norvegicus, Wistar, Brain, Membrane. The conditions noted are these: Not Active = under 50% inhibition at 10 µM.
Data set [4] has as its target Sodium-dependent dopamine transporter (Homo sapiens, UniProt Q01959). In words: DRUGMATRIX: Dopamine Transporter radioligand binding (ligand: [125I] RTI-55). In kind it is cell membranes, CHO-K1, Membrane. The following applies: Not Active = under 50% inhibition at 10 µM.
Another data set addresses Histamine H2 receptor (Homo sapiens, UniProt P25021). In kind it is cell membranes, CHO-K1, Membrane. The conditions noted are these: cho-k1.
Data set [5] has as its target Protein kinase C alpha type (Homo sapiens, UniProt P17252). In kind it is cell-based. The following applies: sf9.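 Note: inhibition of PKCalpha kinase activity measured in an enzyme assay with histone as the phosphorylation substrate; in other assays of this panel Not Active means under 50% inhibition at 10 µM.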
The target of a further data set is Glycine receptor (Rattus norvegicus, UniProt P22771+P24524+P07727+P20781). It is filed as cell membranes, Wistar, Spinal cord, Membrane. Note: in other assays of this panel Not Active means under 50% inhibition at 10 µM.
The target in another data set is T3, Cytochrome P450 2A6 (Homo sapiens, UniProt P11509). Note: in other assays of this panel Not Active means under 50% inhibition at 10 µM.
T3 sequence (P11509 whole entry): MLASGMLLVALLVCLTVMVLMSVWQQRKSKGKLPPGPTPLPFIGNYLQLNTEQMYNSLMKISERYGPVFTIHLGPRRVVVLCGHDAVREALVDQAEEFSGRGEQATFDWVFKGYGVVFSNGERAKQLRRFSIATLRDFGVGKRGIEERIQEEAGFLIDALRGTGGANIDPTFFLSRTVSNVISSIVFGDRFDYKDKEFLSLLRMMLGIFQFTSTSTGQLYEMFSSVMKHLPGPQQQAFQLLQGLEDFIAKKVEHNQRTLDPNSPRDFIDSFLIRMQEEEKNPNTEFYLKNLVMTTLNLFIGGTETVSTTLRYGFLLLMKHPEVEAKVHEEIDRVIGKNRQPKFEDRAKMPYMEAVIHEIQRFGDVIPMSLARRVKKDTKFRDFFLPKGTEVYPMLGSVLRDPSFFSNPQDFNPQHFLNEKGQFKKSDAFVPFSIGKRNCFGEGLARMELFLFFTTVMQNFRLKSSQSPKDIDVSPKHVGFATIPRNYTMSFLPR
The following applies: bti-tn-5b1-4.

Chain of Sodium-dependent dopamine transporter (Q01959 whole entry): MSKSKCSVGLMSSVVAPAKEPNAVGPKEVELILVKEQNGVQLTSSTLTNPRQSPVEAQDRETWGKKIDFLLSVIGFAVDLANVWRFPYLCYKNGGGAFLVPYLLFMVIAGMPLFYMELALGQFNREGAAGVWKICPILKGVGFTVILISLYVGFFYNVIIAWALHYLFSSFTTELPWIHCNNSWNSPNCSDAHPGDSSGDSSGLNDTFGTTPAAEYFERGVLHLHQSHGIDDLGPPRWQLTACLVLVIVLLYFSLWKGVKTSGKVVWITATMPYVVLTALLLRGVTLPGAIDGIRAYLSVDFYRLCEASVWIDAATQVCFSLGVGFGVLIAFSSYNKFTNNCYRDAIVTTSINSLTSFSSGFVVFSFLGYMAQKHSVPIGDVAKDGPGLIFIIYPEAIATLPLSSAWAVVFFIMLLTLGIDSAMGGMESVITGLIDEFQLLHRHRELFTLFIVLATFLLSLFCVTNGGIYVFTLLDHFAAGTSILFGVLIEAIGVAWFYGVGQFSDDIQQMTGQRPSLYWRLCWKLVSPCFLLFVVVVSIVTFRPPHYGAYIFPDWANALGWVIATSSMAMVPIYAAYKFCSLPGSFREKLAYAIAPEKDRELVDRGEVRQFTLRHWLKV
Chain of Histamine H2 receptor (P25021 whole entry): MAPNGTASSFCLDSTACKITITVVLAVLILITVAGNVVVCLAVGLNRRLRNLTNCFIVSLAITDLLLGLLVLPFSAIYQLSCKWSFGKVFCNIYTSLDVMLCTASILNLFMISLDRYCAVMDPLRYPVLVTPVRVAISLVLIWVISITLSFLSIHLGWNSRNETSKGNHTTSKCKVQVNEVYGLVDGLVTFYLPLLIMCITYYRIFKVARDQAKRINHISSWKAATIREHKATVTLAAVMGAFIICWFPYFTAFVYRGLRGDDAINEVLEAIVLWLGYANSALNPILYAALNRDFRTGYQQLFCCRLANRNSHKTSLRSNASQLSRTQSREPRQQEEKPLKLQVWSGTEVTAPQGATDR

As a reminder, the IC50 is the concentration at which inhibition is half-maximal. As a reminder, the Ki is a dissociation constant, usually derived from enzyme kinetics or from competition with a known ligand. On to `O=C(O)Cc1ccc(-c2ccccc2)cc1` [FELBINAC], for which the IC50 entry (in data set [1]; in data set [2]; in data set [3]; in data set [4] (cho-k1); against Histamine H2 receptor; in data set [5]) was “Not Active” throughout. Further, the IC50 result on Glycine receptor and at Cytochrome P450 2A6 was “Not Active” throughout. Also, the Ki result (in data set [3]; on Cytochrome P450 2A6) was “Not Active” each time.
Consider `CCOC(=O)C1=C(C)NC(C)=C(C(=O)OC)C1c1cccc(Cl)c1Cl` (stereo unspecified) [FELODIPINE], for which the IC50 result (in data set [1]; in data set [2]; in data set [3]; in data set [4] (cho-k1); at Histamine H2 receptor; in data set [5]) was “Not Active” throughout. The IC50 entry at Glycine receptor and on Cytochrome P450 2A6 was “Not Active” in each case. Further, the Ki result (in data set [3]; on Cytochrome P450 2A6) was “Not Active” each time.
As for `CC(C(=O)O)c1ccc(-c2ccccc2)c(F)c1` (stereo unspecified) [FLURBIPROFEN], the concentration for half-maximal inhibition (IC50) entry (in data set [1]; in data set [2]; in data set [3]; in data set [4] (cho-k1); against Histamine H2 receptor; in data set [5]) was “Not Active” in each case. Further, the IC50 result at Glycine receptor and against Cytochrome P450 2A6 was “Not Active” in each case. The Ki entry (in data set [3]; on Cytochrome P450 2A6) was “Not Active” each time.
Consider `NC[C@@H]1O[C@H](O[C@H]2[C@@H](O)[C@H](O[C@@H]3[C@@H](O)[C@H](N)C[C@H](N)[C@H]3O[C@H]3O[C@H](CN)[C@@H](O)[C@H](O)[C@H]3N)O[C@@H]2CO)[C@H](N)[C@@H](O)[C@@H]1O` [FRAMYCETIN], for which the IC50 result (in data set [1]; in data set [2]; in data set [3]; in data set [4] (cho-k1); at Histamine H2 receptor; in data set [5]) was “Not Active” in each case. Also, the IC50 entry at Glycine receptor and at Cytochrome P450 2A6 was “Not Active” throughout. Also, the Ki result (in data set [3]; on Cytochrome P450 2A6) was “Not Active” each time.
On to `C[C@H]([C@](O)(Cn1cncn1)c1ccc(F)cc1F)S(C)(=O)=O` [GENACONAZOLE], for which the IC50 result (in data set [1]; in data set [2]; in data set [3]; in data set [4] (cho-k1); against Histamine H2 receptor; in data set [5]) was “Not Active” each time. Further, the half-inhibitory concentration (IC50) entry on Glycine receptor and against Cytochrome P450 2A6 was “Not Active” in each case. Moreover, the Ki entry (in data set [3]; on Cytochrome P450 2A6) was “Not Active” in each case.
As for `Cc1c(F)c(N2CCNC(C)C2)cc2c1c(=O)c(C(=O)O)cn2C1CC1` (stereo unspecified) [GREPAFLOXACIN], the IC50 entry (in data set [1]; in data set [2]; in data set [3]; in data set [4] (cho-k1); at Histamine H2 receptor; in data set [5]) was “Not Active” in each case. Further, the IC50 entry against Glycine receptor and on Cytochrome P450 2A6 was “Not Active” each time. Besides, the Ki result (in data set [3]; at Cytochrome P450 2A6) was “Not Active” in each case.
In the case of `N=C(N)N/N=C/c1c(Cl)cccc1Cl` [GUANABENZ], the IC50 entry (in data set [1]; in data set [2]; in data set [3]; in data set [4] (cho-k1); on Histamine H2 receptor; in data set [5]) was “Not Active” each time. Also, the IC50 entry at Glycine receptor and against Cytochrome P450 2A6 was “Not Active” each time. Further, the Ki result (in data set [3]; at Cytochrome P450 2A6) was “Not Active” each time.
Take `C[C@]12CCC(=O)C=C1CC[C@@H]1[C@@H]2[C@@H](O)C[C@@]2(C)[C@H]1CC[C@]2(O)C(=O)CO` [HYDROCORTISONE]: the IC50 entry (in data set [1]; in data set [2]; in data set [3]; in data set [4] (cho-k1); at Histamine H2 receptor; in data set [5]) was “Not Active” throughout. The IC50 entry against Glycine receptor and against Cytochrome P450 2A6 was “Not Active” in each case. In addition, the Ki entry (in data set [3]; on Cytochrome P450 2A6) was “Not Active” each time.
Consider `NC[C@H]1O[C@H](O[C@H]2[C@H](O)[C@@H](O[C@H]3O[C@H](CO)[C@@H](O)[C@H](N)[C@H]3O)[C@H](N)C[C@@H]2N)[C@H](O)[C@@H](O)[C@@H]1O` [KANAMYCIN], for which the IC50 entry (in data set [1]; in data set [2]; in data set [3]; in data set [4] (cho-k1); on Histamine H2 receptor; in data set [5]) was “Not Active” in each case. Moreover, the IC50 result against Glycine receptor and at Cytochrome P450 2A6 was “Not Active” throughout. The Ki entry (in data set [3]; at Cytochrome P450 2A6) was “Not Active” each time.
For `CC[C@H](C)C(=O)O[C@H]1C[C@@H](C)C=C2C=C[C@H](C)[C@H](CC[C@@H]3C[C@@H](O)CC(=O)O3)[C@H]21` [LOVASTATIN], the IC50 result was “Not Active” in data set [1]; “Not Active” in data set [2]; “Not Active” in data set [3]; 10.1 µM in data set [4] (read-out: IC50); “Not Active” on Histamine H2 receptor; “Not Active” in data set [5]. The IC50 result against Glycine receptor and against Cytochrome P450 2A6 was “Not Active” each time. Moreover, the results for the Ki entry (in data set [3]; in data set [4] (read-out: Ki); at Cytochrome P450 2A6) were “Not Active”, 8.03 µM and “Not Active”, respectively.
On to `CC(C(=O)O)c1ccc(CC2CCCC2=O)cc1` (stereo unspecified) [LOXOPROFEN], for which the IC50 result (in data set [1]; in data set [2]; in data set [3]; in data set [4] (cho-k1); against Histamine H2 receptor; in data set [5]) was “Not Active” in each case. In addition, the IC50 entry on Glycine receptor and at Cytochrome P450 2A6 was “Not Active” throughout. Moreover, the Ki result (in data set [3]; on Cytochrome P450 2A6) was “Not Active” in each case.
Take `Cc1cccc(Nc2ccccc2C(=O)O)c1C` [MEFENAMIC ACID]: the IC50 entry (in data set [1]; in data set [2]; in data set [3]; in data set [4] (cho-k1); at Histamine H2 receptor; in data set [5]) was “Not Active” in each case. The IC50 result against Glycine receptor and against Cytochrome P450 2A6 was “Not Active” each time. In addition, the inhibitory constant (Ki) entry (in data set [3]; at Cytochrome P450 2A6) was “Not Active” in each case.
